Measurements published in ChEMBL document CHEMBL3875230, “Structure-Guided Design of Novel, Potent, and Selective Macrocyclic Plasma Kallikrein Inhibitors” (ACS Med Chem Lett, 2017).

How the values were obtained:
Coagulation factor X = Coagulation factor X (Homo sapiens, UniProt P00742); assay: Inhibition of factor 10a (unknown origin) using N-Z-D-Arg-Gly-Arg-pNA as substrate preincubated for 30 mins followed by substrate addition
Plasma kallikrein = Plasma kallikrein (Homo sapiens, UniProt P03952); assay: Inhibition of human plasma kallikrein using D-Pro-Phe-Arg-pNA as substrate preincubated for 30 mins followed by substrate addition; assay type: cell-free
Plasma kallikrein, sequence (P03952 20-390 limits assumed): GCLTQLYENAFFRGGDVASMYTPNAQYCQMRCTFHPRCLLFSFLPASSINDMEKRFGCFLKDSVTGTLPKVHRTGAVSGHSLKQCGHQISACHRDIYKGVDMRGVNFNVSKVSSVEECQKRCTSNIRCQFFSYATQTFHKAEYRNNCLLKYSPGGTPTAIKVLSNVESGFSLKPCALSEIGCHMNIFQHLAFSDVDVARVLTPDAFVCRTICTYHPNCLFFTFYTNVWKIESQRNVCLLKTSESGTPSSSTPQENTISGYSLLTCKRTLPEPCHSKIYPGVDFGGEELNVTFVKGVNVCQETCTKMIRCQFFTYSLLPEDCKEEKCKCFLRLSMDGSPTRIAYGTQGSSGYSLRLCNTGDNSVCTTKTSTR
Plasma kallikrein, sequence (P03952 391-638 limits assumed): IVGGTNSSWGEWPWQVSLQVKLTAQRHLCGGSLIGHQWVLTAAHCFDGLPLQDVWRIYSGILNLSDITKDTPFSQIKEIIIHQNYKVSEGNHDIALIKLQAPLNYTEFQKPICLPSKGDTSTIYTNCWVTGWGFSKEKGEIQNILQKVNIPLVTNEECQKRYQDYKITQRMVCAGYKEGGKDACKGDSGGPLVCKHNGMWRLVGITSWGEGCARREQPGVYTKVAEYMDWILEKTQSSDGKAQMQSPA

Plasminogen = Plasminogen (Homo sapiens, UniProt P00747); assay: Inhibition of Lys-plasmin (unknown origin) using Tosyl-Gly-Pro-Lys-4-nitranilide as substrate preincubated for 30 mins followed by substrate addition
Plasminogen, sequence (P00747 97-580 limits assumed): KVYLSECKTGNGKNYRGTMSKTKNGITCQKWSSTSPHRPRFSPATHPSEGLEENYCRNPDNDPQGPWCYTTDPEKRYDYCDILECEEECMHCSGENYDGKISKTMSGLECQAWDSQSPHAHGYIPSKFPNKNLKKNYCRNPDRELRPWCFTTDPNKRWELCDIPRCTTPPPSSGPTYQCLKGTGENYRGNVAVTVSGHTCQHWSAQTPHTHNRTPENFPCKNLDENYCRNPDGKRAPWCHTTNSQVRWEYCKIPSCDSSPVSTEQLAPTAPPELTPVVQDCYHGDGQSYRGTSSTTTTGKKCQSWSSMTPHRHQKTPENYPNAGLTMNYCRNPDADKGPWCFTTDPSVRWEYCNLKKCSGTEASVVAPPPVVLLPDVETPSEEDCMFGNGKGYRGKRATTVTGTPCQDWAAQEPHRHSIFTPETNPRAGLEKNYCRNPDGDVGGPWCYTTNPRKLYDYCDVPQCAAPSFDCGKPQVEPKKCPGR
Plasminogen, sequence (P00747 581-810 limits assumed): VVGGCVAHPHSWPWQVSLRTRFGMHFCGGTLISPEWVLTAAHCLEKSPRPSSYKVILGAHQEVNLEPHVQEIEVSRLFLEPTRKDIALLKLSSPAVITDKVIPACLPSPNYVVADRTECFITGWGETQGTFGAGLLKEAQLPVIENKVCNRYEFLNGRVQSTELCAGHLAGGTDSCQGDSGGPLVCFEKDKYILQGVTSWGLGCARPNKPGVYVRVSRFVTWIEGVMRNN

[1] = Inhibition of bovine trypsin using S-2765 as substrate incubated for 30 mins followed by substrate addition; design: species or system Bos taurus
Coagulation factor XI = Coagulation factor XI (Homo sapiens, UniProt P03951); assay: Inhibition of factor 11a (unknown origin) using S-2366 as substrate incubated for 30 mins followed by substrate addition
Coagulation factor XI, sequence (P03951 19-387 limits assumed): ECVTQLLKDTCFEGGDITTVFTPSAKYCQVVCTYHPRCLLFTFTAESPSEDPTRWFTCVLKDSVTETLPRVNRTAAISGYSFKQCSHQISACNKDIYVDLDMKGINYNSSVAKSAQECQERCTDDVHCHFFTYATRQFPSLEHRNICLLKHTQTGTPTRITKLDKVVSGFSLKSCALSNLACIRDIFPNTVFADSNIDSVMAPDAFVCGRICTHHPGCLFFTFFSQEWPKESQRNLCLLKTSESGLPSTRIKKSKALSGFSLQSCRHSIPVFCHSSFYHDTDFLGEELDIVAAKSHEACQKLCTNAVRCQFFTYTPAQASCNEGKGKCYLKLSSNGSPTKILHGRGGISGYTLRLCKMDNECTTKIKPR
Coagulation factor XI, sequence (P03951 388-625 limits assumed): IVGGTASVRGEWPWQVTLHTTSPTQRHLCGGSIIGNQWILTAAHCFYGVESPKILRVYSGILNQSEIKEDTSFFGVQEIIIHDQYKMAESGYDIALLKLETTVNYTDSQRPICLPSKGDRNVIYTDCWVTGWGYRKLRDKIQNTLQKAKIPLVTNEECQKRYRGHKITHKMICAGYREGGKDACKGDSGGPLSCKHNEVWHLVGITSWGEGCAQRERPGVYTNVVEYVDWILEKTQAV

Coagulation factor XII = biological target: T1, Coagulation factor XII (Homo sapiens, UniProt P00748); assay: Inhibition of factor 12a (unknown origin) using D-Pro-Phe-Arg-pNA as substrate preincubated for 30 mins followed by substrate addition
T1 sequence (P00748 whole entry): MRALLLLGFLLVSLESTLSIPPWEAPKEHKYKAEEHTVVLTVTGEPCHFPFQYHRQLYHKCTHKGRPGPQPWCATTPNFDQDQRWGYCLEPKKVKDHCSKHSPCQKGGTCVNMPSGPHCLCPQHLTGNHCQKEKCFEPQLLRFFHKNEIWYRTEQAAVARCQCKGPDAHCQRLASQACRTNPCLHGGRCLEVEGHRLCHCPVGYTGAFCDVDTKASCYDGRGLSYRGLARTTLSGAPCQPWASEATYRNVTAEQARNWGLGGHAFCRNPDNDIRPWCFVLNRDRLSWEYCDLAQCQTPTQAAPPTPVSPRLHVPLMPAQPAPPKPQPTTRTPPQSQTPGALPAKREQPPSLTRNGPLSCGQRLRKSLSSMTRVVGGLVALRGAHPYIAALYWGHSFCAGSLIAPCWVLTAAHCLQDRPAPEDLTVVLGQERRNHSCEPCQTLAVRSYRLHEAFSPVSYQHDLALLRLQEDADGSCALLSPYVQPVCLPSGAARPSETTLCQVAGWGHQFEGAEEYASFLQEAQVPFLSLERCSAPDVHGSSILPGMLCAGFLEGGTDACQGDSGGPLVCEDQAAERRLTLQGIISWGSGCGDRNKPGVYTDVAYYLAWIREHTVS

[2] = biological target: Tissue-type plasminogen activator (Homo sapiens, UniProt P00750); assay: Inhibition of tPA (unknown origin) using Methylsulfonyl-D-Phe-Gly-Arg-pNA as substrate preincubated for 30 mins followed by substrate addition
Tissue-type plasminogen activator, sequence (P00750 whole entry): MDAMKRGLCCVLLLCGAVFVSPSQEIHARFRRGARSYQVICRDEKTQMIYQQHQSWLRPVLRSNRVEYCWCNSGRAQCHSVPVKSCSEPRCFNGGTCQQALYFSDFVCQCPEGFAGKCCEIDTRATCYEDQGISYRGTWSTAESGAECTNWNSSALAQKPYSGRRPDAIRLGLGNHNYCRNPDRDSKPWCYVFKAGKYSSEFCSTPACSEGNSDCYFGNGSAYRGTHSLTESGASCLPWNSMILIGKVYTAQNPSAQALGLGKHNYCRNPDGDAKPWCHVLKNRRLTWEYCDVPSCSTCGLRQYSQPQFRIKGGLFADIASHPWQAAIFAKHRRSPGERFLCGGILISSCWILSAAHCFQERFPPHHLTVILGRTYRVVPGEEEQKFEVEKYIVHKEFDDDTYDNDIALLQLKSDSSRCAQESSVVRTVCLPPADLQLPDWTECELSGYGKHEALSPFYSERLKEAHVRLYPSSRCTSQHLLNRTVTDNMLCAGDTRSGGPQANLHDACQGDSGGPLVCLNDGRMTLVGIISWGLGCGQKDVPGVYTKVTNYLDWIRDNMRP

Prothrombin = Prothrombin (Homo sapiens, UniProt P00734); assay: Inhibition of alpha-thrombin (unknown origin) using D-Phe-Pip-Arg-pNA as substrate preincubated for 30 mins followed by substrate addition
[3] = Half life in rat liver microsomes in presence of NADPH by LC/MS/MS analysis; assay type: ADME
[4] = Apparent permeability across MDCK cells at 1 uM; assay type: ADME, cell-based, Canis lupus familiaris; conditions: dog
[5] = Cmax in Sprague-Dawley rat plasma at 20 mg/kg administered via oral gavage measured up to 24 hrs by LC-MS/MS analysis; assay type: ADME, organism-based; design: dose 20 mg/kg, route oral
[6] = Oral bioavailability in Sprague-Dawley rat plasma at 20 mg/kg administered via gavage measured up to 24 hrs by LC-MS/MS analysis; assay type: ADME, organism-based

Coagulation factor X, sequence (P00742 41-179 limits assumed): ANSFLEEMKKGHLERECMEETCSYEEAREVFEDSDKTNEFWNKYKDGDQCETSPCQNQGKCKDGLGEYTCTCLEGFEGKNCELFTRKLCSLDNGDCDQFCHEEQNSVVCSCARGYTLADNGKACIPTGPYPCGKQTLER
Coagulation factor X, sequence (P00742 235-488 limits assumed): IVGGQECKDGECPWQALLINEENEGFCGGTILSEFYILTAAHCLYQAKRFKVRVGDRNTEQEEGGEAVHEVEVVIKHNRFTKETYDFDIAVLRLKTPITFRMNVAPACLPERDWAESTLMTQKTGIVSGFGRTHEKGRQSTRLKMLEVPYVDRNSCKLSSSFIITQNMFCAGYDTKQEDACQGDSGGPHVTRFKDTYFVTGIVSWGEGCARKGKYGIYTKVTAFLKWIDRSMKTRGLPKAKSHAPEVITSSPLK

| IC50 (Coagulation factor X) | IC50 (Plasma kallikrein) | IC50 (Plasminogen) | IC50 [1] | IC50 (Coagulation factor XI) | IC50 (Coagulation factor XII) | IC50 [2] | IC50 (Prothrombin) | half-life [3] | Papp at 1 µM [4] | Cmax [5] | bioavailability [6] | Structure (SMILES) |
| --- | --- | --- | --- | --- | --- | --- | --- | --- | --- | --- | --- | --- |
| > 200 µM | 0.0048 µM | 21.4 µM | > 200 µM | 11.7 µM | > 200 µM | > 200 µM | > 200 µM | < 5 min |  |  |  | Cc1nc(N)cc2c1CNC(=O)c1cnn(c1)Cc1ccc(Cn3cccn3)cc1OCCCC=CCCO2 (mixture of isomers) |
|  | 1.21 µM |  |  |  |  |  |  |  |  |  |  | Cc1nc(N)cc2c1CNC(=O)c1cnn(c1)Cc1ccc(Cn3cccn3)cc1OCC/C=C/CCO2 |
| > 200 µM | 0.0423 µM | > 200 µM | > 200 µM | 40.9 µM | > 200 µM | > 200 µM | > 200 µM | < 5 min | < 1 ×10⁻⁶ cm/s |  |  | Cc1nc(N)cc2c1CNC(=O)c1cnn(c1)Cc1ccc(Cn3cccn3)cc1OCCC/C=C\CCO2 |
| > 200 µM | 0.002 µM | > 200 µM | > 200 µM | 3.61 µM | > 200 µM | > 200 µM | > 200 µM | < 5 min | < 1 ×10⁻⁶ cm/s |  |  | Cc1nc(N)cc2c1CNC(=O)c1cnn(c1)Cc1ccc(Cn3cccn3)cc1OCCC/C=C/CCO2 |
|  | 53.2 µM |  |  |  |  |  |  |  |  |  |  | Cc1cc(N)nc2c1CNC(=O)c1cnn(c1)Cc1ccc(Cn3cccn3)cc1OCC/C=C/CCO2 |
|  | > 3000 µM |  |  |  |  |  |  |  |  |  |  | Cc1cc(N)nc2c1CNC(=O)c1cnn(c1)Cc1ccc(Cn3cccn3)cc1OCC/C=C\CCO2 |
|  | 1.57 µM |  |  |  |  |  |  |  |  |  |  | Cc1nc(N)cc2c1CNC(=O)c1cnn(c1)Cc1ccc(Cn3cccn3)cc1OCC/C=C\CCO2 |
| > 1000 µM | 0.0024 µM | > 1000 µM | 578 µM | 106 µM | > 1000 µM | > 1000 µM | > 1000 µM | 48 min | < 1 ×10⁻⁶ cm/s | 25 ng/mL | 6% | Cc1nc(N)ccc1CNC(=O)c1cnn(Cc2ccc(Cn3cccn3)cc2)c1 |
|  | 8.31 µM |  |  |  |  |  |  |  |  |  |  | Cc1nc(N)cc2c1CNC(=O)c1cnn(c1)Cc1ccc(Cn3cccn3)cc1OCCCCCCO2 |
| > 200 µM | 0.153 µM | 9.97 µM | > 200 µM | 12.7 µM | > 200 µM | > 200 µM | > 200 µM | < 5 min | < 1 ×10⁻⁶ cm/s |  |  | Cc1nc(N)cc2c1CNC(=O)c1cnn(c1)Cc1ccc(Cn3cccn3)cc1OCC/C=C/CCCO2 |
